Measurements as given in US5149777A, “Human insulin analogs and preparations containing them” (Novo Nordisk A/S, priority 1991, dated 1992).

How the values were obtained:
[1] = biological target: insulin receptors of isolated rat hepatocytes (Rattus norvegicus, UniProt P15127)
Protocol: (§1) The biological activity in vitro was determined by measuring the binding affinity to the insulin receptors of isolated rat adipocytes and hepatocytes essentially as described in J. Gliemann, S. Gammeltoft: Diabetologia 10, 105-113 (1974).

[2] = biological target: T1, insulin receptors of isolated rat adipocytes (Rattus norvegicus, UniProt P15127); experiment: Binding affinity to insulin receptors of isolated rat adipocytes; settings: relative to semisynthetic human insulin, potency set to 100%
T1 construct: endogenous in cells; host or cells: isolated rat adipocytes
T1 sequence (P15127 27-759 limits assumed): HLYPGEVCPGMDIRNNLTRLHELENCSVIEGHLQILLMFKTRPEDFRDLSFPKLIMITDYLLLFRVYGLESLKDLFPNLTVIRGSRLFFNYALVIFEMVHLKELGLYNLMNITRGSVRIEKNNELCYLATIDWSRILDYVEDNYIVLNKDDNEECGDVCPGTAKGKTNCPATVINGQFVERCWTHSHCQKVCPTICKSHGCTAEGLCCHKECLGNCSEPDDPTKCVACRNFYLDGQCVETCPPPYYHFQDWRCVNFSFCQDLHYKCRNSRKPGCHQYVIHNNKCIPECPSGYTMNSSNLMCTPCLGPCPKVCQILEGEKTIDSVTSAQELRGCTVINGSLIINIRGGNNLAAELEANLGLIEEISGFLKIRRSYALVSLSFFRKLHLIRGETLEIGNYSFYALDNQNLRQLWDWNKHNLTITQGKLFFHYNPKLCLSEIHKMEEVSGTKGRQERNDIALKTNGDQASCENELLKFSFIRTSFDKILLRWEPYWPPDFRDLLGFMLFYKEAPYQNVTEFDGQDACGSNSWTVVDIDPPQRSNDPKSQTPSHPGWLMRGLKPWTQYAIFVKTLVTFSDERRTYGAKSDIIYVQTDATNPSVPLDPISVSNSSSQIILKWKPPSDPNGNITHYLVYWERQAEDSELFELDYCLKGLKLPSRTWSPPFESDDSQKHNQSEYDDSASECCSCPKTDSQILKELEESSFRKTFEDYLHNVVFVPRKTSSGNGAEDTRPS
T1 sequence (P15127 764-1383 partner limits assumed): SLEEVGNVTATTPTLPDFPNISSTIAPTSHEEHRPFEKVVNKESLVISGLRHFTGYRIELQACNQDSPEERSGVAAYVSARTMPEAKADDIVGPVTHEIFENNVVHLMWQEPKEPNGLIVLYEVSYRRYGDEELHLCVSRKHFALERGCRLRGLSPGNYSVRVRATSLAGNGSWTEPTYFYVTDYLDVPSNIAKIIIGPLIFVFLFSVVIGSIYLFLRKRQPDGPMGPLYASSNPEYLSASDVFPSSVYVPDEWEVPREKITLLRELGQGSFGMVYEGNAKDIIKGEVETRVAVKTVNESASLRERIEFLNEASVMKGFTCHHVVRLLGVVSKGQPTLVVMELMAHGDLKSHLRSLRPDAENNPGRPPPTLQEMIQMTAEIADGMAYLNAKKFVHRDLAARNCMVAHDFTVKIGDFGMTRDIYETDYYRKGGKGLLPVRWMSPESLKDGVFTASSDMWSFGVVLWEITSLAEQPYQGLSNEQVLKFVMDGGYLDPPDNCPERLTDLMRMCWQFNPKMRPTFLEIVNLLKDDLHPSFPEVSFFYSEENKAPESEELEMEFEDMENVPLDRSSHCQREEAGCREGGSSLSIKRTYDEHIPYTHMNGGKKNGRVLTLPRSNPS
Protocol: as §1

Chain of insulin receptors of isolated rat hepatocytes (P15127 27-759 limits assumed): as the sequence (P15127 27-759 limits assumed) above
Chain of insulin receptors of isolated rat hepatocytes (P15127 764-1383 partner limits assumed): as the sequence (P15127 764-1383 partner limits assumed) above

Biological activity in vitro (binding affinity), Adipocytes [2] | Substance | Biological activity in vitro (binding affinity), Hepatocytes [1]
150% | [His^B25 ]-human insulin | 142%
130% | [His^B25, Asp^B28 ]-des[Thr^B30 ]-human insulin | 135%
356% | [Tyr^B25 ]-human insulin | 222%
201% | [Tyr^B25, Asp^B28 ]-human insulin | 138%
